# Test results as given in patent publication US20230365592A1 (Agios Pharmaceuticals, Inc., priority 2022, published 2023).
# Biological target: T1, human PAH with the R408W mutation (Homo sapiens, UniProt P00439, R408W)
# T1 construct: expressed in transfected cells
# T1 sequence (P00439 1-452 R408W): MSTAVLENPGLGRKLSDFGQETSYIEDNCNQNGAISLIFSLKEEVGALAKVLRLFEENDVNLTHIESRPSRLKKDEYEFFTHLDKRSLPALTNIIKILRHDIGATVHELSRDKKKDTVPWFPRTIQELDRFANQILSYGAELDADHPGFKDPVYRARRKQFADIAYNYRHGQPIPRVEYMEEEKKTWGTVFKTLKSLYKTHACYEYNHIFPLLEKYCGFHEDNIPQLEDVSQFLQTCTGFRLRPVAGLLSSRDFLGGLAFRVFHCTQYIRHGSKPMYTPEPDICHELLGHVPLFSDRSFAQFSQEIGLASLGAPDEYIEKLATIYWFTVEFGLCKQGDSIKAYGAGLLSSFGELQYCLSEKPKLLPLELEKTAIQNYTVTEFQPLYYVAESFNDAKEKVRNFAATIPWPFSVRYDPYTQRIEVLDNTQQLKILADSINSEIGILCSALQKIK
# Experiment: Cell Based Phenylalanine Flux Assay;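 note: after compound treatment, cells received sepiapterin plus isotope-labelled Phenylalanine for 4 hours, then labelled Tyrosine in the medium was quantified, 10-point 2-fold dilution series run in duplicate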
# Details: A375 cells expressing human R408W PAH; 24 hrs compound incubation; 13C-Tyrosine by LC-MS; average where tested multiple times; read-out: AC50
row,SMILES,AC50
1,"Fc1cccn2nc([C@H]3c4nc[nH]c4CCN3c3nnc(-c4ccccn4)o3)cc12 [Example 1612, (R)-2-(4-(4-fluoropyrazolo[1,5-a]pyridin-2-yl)-6,7-dihydro-1H-imidazo[4,5-c]pyridin-5(4H)-yl)-5-(pyridin-2-yl)-1,3,4-oxadiazole]",> 5000 nM
2,"Fc1cccn2nc([C@H]3c4nc[nH]c4CCN3c3ncccn3)cc12 [Example 1617, (R)-4-(4-fluoropyrazolo[1,5-a]pyridin-2-yl)-5-(pyrimidin-2-yl)-4,5,6,7-tetrahydro-1H-imidazo[4,5-c]pyridine]",> 5000 nM
3,"Cc1cccn2nc([C@H]3c4nc[nH]c4CCN3c3ncccn3)cc12 [Example 1619, (R)-4-(4-methylpyrazolo[1,5-a]pyridin-2-yl)-5-(pyrimidin-2-yl)-4,5,6,7-tetrahydro-1H-imidazo[4,5-c]pyridine]",1000 to 5000 nM
4,"Cc1cccn2nc([C@H]3c4nc[nH]c4CCN3C(=O)c3cnn4cc(-c5ccn(C)n5)ccc34)cc12 [Example 1620, (R)-(6-(1-methyl-1H-pyrazol-3-yl)pyrazolo[1,5-a]pyridin-3-yl)(4-(4-methylpyrazolo[1,5-a]pyridin-2-yl)-6,7-dihydro-1H-imidazo[4,5-c]pyridin-5(4H)-yl)methanone]",> 5000 nM
5,"Clc1cccn2nc([C@@H]3c4nc[nH]c4CCN3c3nnc(-c4ccccn4)o3)cc12 [Example 1623, (S)-2-(4-(4-chloropyrazolo[1,5-a]pyridin-2-yl)-6,7-dihydro-1H-imidazo[4,5-c]pyridin-5(4H)-yl)-5-(pyridin-2-yl)-1,3,4-oxadiazole]",< 500 nM
6,"FC(F)c1cccc2cc([C@@H]3c4nc[nH]c4CCN3c3nnc(-c4ccccn4)o3)nn12 [Example 1626, (S)-2-(4-(7-(difluoromethyl)pyrazolo[1,5-a]pyridin-2-yl)-6,7-dihydro-1H-imidazo[4,5-c]pyridin-5(4H)-yl)-5-(pyridin-2-yl)-1,3,4-oxadiazole]",500 to 1000 nM
7,"Cn1ccc(-c2ccc3c(C(=O)N4CCc5[nH]cnc5[C@H]4c4cc5cccc(C(F)(F)F)n5n4)cnn3c2)n1 [Example 1632, (S)-(6-(1-methyl-1H-pyrazol-3-yl)pyrazolo[1,5-a]pyridin-3-yl)(4-(7-(trifluoromethyl)pyrazolo[1,5-a]pyridin-2-yl)-6,7-dihydro-1H-imidazo[4,5-c]pyridin-5(4H)-yl)methanone]",500 to 1000 nM
8,"CN(C)Cc1ccc2c(C(=O)N3CCc4[nH]cnc4[C@H]3c3cc4c(Cl)cccn4n3)cnn2c1 [Example 1634, (S)-(4-(4-chloropyrazolo[1,5-a]pyridin-2-yl)-6,7-dihydro-1H-imidazo[4,5-c]pyridin-5(4H)-yl)(6-((dimethylamino)methyl)pyrazolo[1,5-a]pyridin-3-yl)methanone]",500 to 1000 nM
9,"Cc1cccn2nc([C@H]3c4nc[nH]c4CCN3c3nc4ccccc4o3)cc12 [Example 1642, (R)-2-(4-(4-methylpyrazolo[1,5-a]pyridin-2-yl)-6,7-dihydro-1H-imidazo[4,5-c]pyridin-5(4H)-yl)benzo[d]oxazole]",> 5000 nM
10,"Cc1cccn2nc([C@@H]3c4nc[nH]c4CCN3c3nc4ccccc4o3)cc12 [Example 1643, (S)-2-(4-(4-methylpyrazolo[1,5-a]pyridin-2-yl)-6,7-dihydro-1H-imidazo[4,5-c]pyridin-5(4H)-yl)benzo[d]oxazole]",500 to 1000 nM
11,"O=C(c1cnn2cc(-c3ccccn3)ccc12)N1CCc2[nH]cnc2[C@H]1c1cc2c(F)cccn2n1 [Example 1644, (S)-(4-(4-fluoropyrazolo[1,5-a]pyridin-2-yl)-6,7-dihydro-1H-imidazo[4,5-c]pyridin-5(4H)-yl)(6-(pyridin-2-yl)pyrazolo[1,5-a]pyridin-3-yl)methanone]",< 500 nM
12,"Cc1cccn2nc([C@@H]3c4nc[nH]c4CCN3C(=O)c3cnn4cc(-c5ccccn5)ccc34)cc12 [Example 1648, (S)-(4-(4-methylpyrazolo[1,5-a]pyridin-2-yl)-6,7-dihydro-1H-imidazo[4,5-c]pyridin-5(4H)-yl)(6-(pyridin-2-yl)pyrazolo[1,5-a]pyridin-3-yl)methanone]",500 to 1000 nM
13,"COc1cccn2nc([C@H]3c4nc[nH]c4CCN3C(=O)c3nnc(-c4ccn(C(F)(F)F)n4)o3)cc12 [Example 1653, (R)-(4-(4-methoxypyrazolo[1,5-a]pyridin-2-yl)-6,7-dihydro-1H-imidazo[4,5-c]pyridin-5(4H)-yl)(5-(1-(trifluoromethyl)-1H-pyrazol-3-yl)-1,3,4-oxadiazol-2-yl)methanone]",> 5000 nM

# Continued, values first:
row,AC50,SMILES
1,< 500 nM,"Fc1cccn2nc([C@@H]3c4nc[nH]c4CCN3c3nnc(-c4ccccn4)o3)cc12 [Example 1613, (S)-2-(4-(4-fluoropyrazolo[1,5-a]pyridin-2-yl)-6,7-dihydro-1H-imidazo[4,5-c]pyridin-5(4H)-yl)-5-(pyridin-2-yl)-1,3,4-oxadiazole]"
2,500 to 1000 nM,"O=C(c1cnn2cc(N3CCOCC3)ccc12)N1CCc2[nH]cnc2[C@H]1c1cc2c(C(F)(F)F)cccn2n1 [Example 1614, (S)-(6-morpholinopyrazolo[1,5-a]pyridin-3-yl)(4-(4-(trifluoromethyl)pyrazolo[1,5-a]pyridin-2-yl)-6,7-dihydro-1H-imidazo[4,5-c]pyridin-5(4H)-yl)methanone]"
3,< 500 nM,"Fc1cccn2nc([C@@H]3c4nc[nH]c4CCN3c3ncccn3)cc12 [Example 1616, (S)-4-(4-fluoropyrazolo[1,5-a]pyridin-2-yl)-5-(pyrimidin-2-yl)-4,5,6,7-tetrahydro-1H-imidazo[4,5-c]pyridine]"
4,< 500 nM,"Cc1cccn2nc([C@@H]3c4nc[nH]c4CCN3c3ncccn3)cc12 [Example 1618, (S)-4-(4-methylpyrazolo[1,5-a]pyridin-2-yl)-5-(pyrimidin-2-yl)-4,5,6,7-tetrahydro-1H-imidazo[4,5-c]pyridine]"
5,< 500 nM,"Cc1cccn2nc([C@@H]3c4nc[nH]c4CCN3C(=O)c3cnn4cc(-c5ccn(C)n5)ccc34)cc12 [Example 1621, (S)-(6-(1-methyl-1H-pyrazol-3-yl)pyrazolo[1,5-a]pyridin-3-yl)(4-(4-methylpyrazolo[1,5-a]pyridin-2-yl)-6,7-dihydro-1H-imidazo[4,5-c]pyridin-5(4H)-yl)methanone]"
6,500 to 1000 nM,"Cc1cccn2nc([C@@H]3c4nc[nH]c4CCN3C(=O)c3cnn4cc(-c5cnn(C)c5)ccc34)cc12 [Example 1630, (S)-(6-(1-methyl-1H-pyrazol-4-yl)pyrazolo[1,5-a]pyridin-3-yl)(4-(4-methylpyrazolo[1,5-a]pyridin-2-yl)-6,7-dihydro-1H-imidazo[4,5-c]pyridin-5(4H)-yl)methanone]"
7,< 500 nM,"Cc1cccn2nc([C@@H]3c4nc[nH]c4CCN3c3nnc(-c4ccccn4)o3)cc12 [Example 1637, (S)-2-(4-(4-methylpyrazolo[1,5-a]pyridin-2-yl)-6,7-dihydro-1H-imidazo[4,5-c]pyridin-5(4H)-yl)-5-(pyridin-2-yl)-1,3,4-oxadiazole]"
8,500 to 1000 nM,"Cc1cccc2cc([C@@H]3c4nc[nH]c4CCN3c3nnc(-c4ccccn4)o3)nn12 [Example 1640, (S)-2-(4-(7-methylpyrazolo[1,5-a]pyridin-2-yl)-6,7-dihydro-1H-imidazo[4,5-c]pyridin-5(4H)-yl)-5-(pyridin-2-yl)-1,3,4-oxadiazole]"
9,> 5000 nM,"O=C(c1cnn2cc(-c3ccccn3)ccc12)N1CCc2[nH]cnc2[C@@H]1c1cc2c(F)cccn2n1 [Example 1645, (R)-(4-(4-fluoropyrazolo[1,5-a]pyridin-2-yl)-6,7-dihydro-1H-imidazo[4,5-c]pyridin-5(4H)-yl)(6-(pyridin-2-yl)pyrazolo[1,5-a]pyridin-3-yl)methanone]"
10,500 to 1000 nM,"Cn1ccc(-c2ccc3c(C(=O)N4CCc5[nH]cnc5[C@H]4c4cc5c(F)cccn5n4)cnn3c2)n1 [Example 1646, (S)-(4-(4-fluoropyrazolo[1,5-a]pyridin-2-yl)-6,7-dihydro-1H-imidazo[4,5-c]pyridin-5(4H)-yl)(6-(1-methyl-1H-pyrazol-3-yl)pyrazolo[1,5-a]pyridin-3-yl)methanone]"
11,> 5000 nM,"Cn1ccc(-c2ccc3c(C(=O)N4CCc5[nH]cnc5[C@@H]4c4cc5c(F)cccn5n4)cnn3c2)n1 [Example 1647, (R)-(4-(4-fluoropyrazolo[1,5-a]pyridin-2-yl)-6,7-dihydro-1H-imidazo[4,5-c]pyridin-5(4H)-yl)(6-(1-methyl-1H-pyrazol-3-yl)pyrazolo[1,5-a]pyridin-3-yl)methanone]"
12,> 5000 nM,"Cc1cccn2nc([C@H]3c4nc[nH]c4CCN3C(=O)c3cnn4cc(-c5ccccn5)ccc34)cc12 [Example 1649, (R)-(4-(4-methylpyrazolo[1,5-a]pyridin-2-yl)-6,7-dihydro-1H-imidazo[4,5-c]pyridin-5(4H)-yl)(6-(pyridin-2-yl)pyrazolo[1,5-a]pyridin-3-yl)methanone]"
13,500 to 1000 nM,"COc1cccn2nc([C@@H]3c4nc[nH]c4CCN3C(=O)c3nnc(-c4ccn(C(F)(F)F)n4)o3)cc12 [Example 1652, (S)-(4-(4-methoxypyrazolo[1,5-a]pyridin-2-yl)-6,7-dihydro-1H-imidazo[4,5-c]pyridin-5(4H)-yl)(5-(1-(trifluoromethyl)-1H-pyrazol-3-yl)-1,3,4-oxadiazol-2-yl)methanone]"
14,500 to 1000 nM,"O=C(c1nnc(C2CC2)o1)N1CCc2[nH]cnc2[C@H]1c1cc2c(OC(F)F)cccn2n1 [Example 1654, (S)-(5-cyclopropyl-1,3,4-oxadiazol-2-yl)(4-(4-(difluoromethoxy)pyrazolo[1,5-a]pyridin-2-yl)-6,7-dihydro-1H-imidazo[4,5-c]pyridin-5(4H)-yl)methanone]"
